Common to all, as to assay: relative viability (nuclei count vs DMSO), 5 days (fraction); higher = more cells survive
Compound in experiment [1]: C[C@@H](N)c1ccc(C(=O)Nc2ccnc3[nH]ccc23)cc1 + COc1cc2c(Oc3ccc(NC(=O)C4(C(=O)Nc5ccc(F)cc5)CC4)cc3F)ccnc2cc1OCCCN1CCOCC1 [Foretinib] (partner 0.25 µM)
In a few lines:
(§1)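 Dosing by pin tool came one day after lung cancer cell lines were seeded in 1536-well plates, using either one drug or a fixed anchor-drug dose plus five library-drug doses (not always all listed) in √10 steps. After 5 days, nuclei were counted on 4× images. Relative viability is treated-well nuclei count divided by vehicle-well nuclei count, and values are medians of duplicate plates.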

Compound in experiment [2]: C[C@@H](N)c1ccc(C(=O)Nc2ccnc3[nH]ccc23)cc1 + C[C@]1(O)C[C@@H](c2nc(-c3ccc4ccc(-c5ccccc5)nc4c3)c3c(N)nccn32)C1 [Linsitinib] (partner 1 µM)
The method, boiled down: as §1

Compound in the experiment “Tanzisertib + Tozasertib”: O[C@H]1CC[C@H](Nc2ncc3nc(Nc4c(F)cc(F)cc4F)n([C@H]4CCOC4)c3n2)CC1 [Tanzisertib] + Cc1cc(Nc2cc(N3CCN(C)CC3)nc(Sc3ccc(NC(=O)C4CC4)cc3)n2)n[nH]1 [Tozasertib] (partner 0.1 µM)
In a few lines: as §1

Compound in the experiment “Tanzisertib + Alpelisib”: O[C@H]1CC[C@H](Nc2ncc3nc(Nc4c(F)cc(F)cc4F)n([C@H]4CCOC4)c3n2)CC1 [Tanzisertib] + Cc1nc(NC(=O)N2CCC[C@H]2C(N)=O)sc1-c1ccnc(C(C)(C)C(F)(F)F)c1 [Alpelisib] (partner 2 µM)
The method, boiled down: as §1

UMC-11: the relative viability in experiment [1] (first compound 0.04 µM) worked out at 1.14; in experiment [1] (first compound 0.1265 µM) it was 1.1; in experiment [1] (first compound 0.4 µM), 1.12; in experiment [1] (first compound 1.265 µM), 1; in experiment [1] (first compound 4 µM), 0.694; in experiment [2] (first compound 0.04 µM), 1.02. The relative viability in experiment [2] (first compound 0.1265 µM) stood at 1.09; in experiment [2] (first compound 0.4 µM), 1.06; in experiment [2] (first compound 1.265 µM), 0.958; in experiment [2] (first compound 4 µM), 0.641; with Tanzisertib + Tozasertib (first compound 0.08 µM), 0.208; with Tanzisertib + Tozasertib (first compound 0.253 µM), 0.191. In addition, the relative viability was 0.212 in the experiment with Tanzisertib + Tozasertib (first compound 0.8 µM); 0.215 with Tanzisertib + Tozasertib (first compound 2.53 µM); 0.209 with Tanzisertib + Tozasertib (first compound 8 µM); 0.835 with Tanzisertib + Alpelisib (first compound 0.08 µM); 0.987 with Tanzisertib + Alpelisib (first compound 0.253 µM); 0.999 with Tanzisertib + Alpelisib (first compound 0.8 µM). The relative viability in the experiment with Tanzisertib + Alpelisib (first compound 2.53 µM) was found to be 0.956; with Tanzisertib + Alpelisib (first compound 8 µM), 1.13.

(Values after the supplement of paper PMC10307832.)
